The values that follow come from patent US8406870B2, “Treating cancer using electromagnetic fields in combination with other treatment regimens” (priority 2006, dated 2013).

Read-outs that look alike come from different tables or passages of the source.

In test [1] the test system is mouse melanoma (B16F10) cells. Put plainly: XTT cell proliferation assay, first set of experiments. In kind it is cell-based. The note with it: 24 h. As for the experimental part: (§1) The MDA-231 and B16F10 cells were obtained from ATCC (USA). […] The experiments were performed in 35 mm Petri dishes (NUNC, USA). Cisplatin and Taxol were obtained from Sigma (USA). A cell proliferation assay kit was obtained from Biological Industries Ltd., Israel. […] XTT is cleaved to formazan (absorbs at 450-500 nm) by the “succinate-tetrazolium reductase” system of the respiratory chain of the mitochondria and is active only in viable cells. Therefore, the amount of formazan dye (A450 nm) formed directly correlates to the number of metabolically active cells in culture. The XTT assay is widely used for the measurement of cell proliferation in response to growth factors, cytokines, mitogens, nutrients, anti-cancer drugs and physiological mediators.) The media in the Petri dish was replaced by fresh media (3 ml with or without Taxol or Cisplatin), thermo-couples were placed at the center, and the dish cover was replaced by one with attached electrodes. Cell samples without […] treatment were placed in CO2 incubator at 37° C. for 24 hours, while […] treated samples were placed in CO2 incubator at 25° C., also for 24 hours. Final incubation temperature of […] treated samples was 37±0.7° C. due to heating induced by TTFields (as measured by inserted thermo-couples). […] The rate of cell proliferation was calculated as a ratio of the final cell number to the initial cell number (OD1/OD0). […] For those samples that were subjected to TTFields, two-directional 200 kHz sinusoidal TTFields were generated by an appropriate waveform generator and an amplifier. The output of the amplifier was switched between two pairs of outputs every 250 mSec, with the outputs connected to two pairs of electrodes, insulated by a high dielectric constant ceramic (e.g., PMN-PT, EDO Corporation, Utah), positioned in the Petri dish as depicted in FIG. 1. Field intensity in the medium surrounding the cells was measured to be approximately 7 V/cm.
Background: Tetrazolium dyes change colour on reduction, which living cells bring about.

Test [2] relates to human breast cancer (MDA-231) cells. The description is as above. The note with it: 24 h. In kind it is cell-based. As for the experimental part: as §1
The test system of test [3] is human non-small cell lung cancer (H1299) cells. In kind it is cell-based.

Turning to `O=P1(N(CCCl)CCCl)NCCCO1` (centres unmarked) [Cyclophosphamide], the “effectiveness of combined treatment” value in the test on MDA-MB-231 cells (30 mM Cyclophosphamide + 1.75 V/cm TTFields applied for 1 hour) is “not effective”; in the test with MDA-MB-231 cells (30 mM Cyclophosphamide + 1.75 V/cm TTFields applied for 6 hours or more) it was “fully effective”.
In the case of `N.N.[Cl][Pt][Cl]` [Cisplatin, cis-diamminedichloroplatinum(II)], the “cell proliferation, drug alone compared with drug + TTFields” value in test [1] (Cisplatin 15 μM) is reported as “reduced cell proliferation to a lesser extent”. The “cell proliferation under combined treatment” value in test [2] (Cisplatin 15 μM + TTFields 200 kHz approx. 7 V/cm) is recorded as “complete cell proliferation arrest”. Besides, the “reduced cell proliferation as compared with the control” value in test [2] (Cisplatin 15 μM alone) was determined as 63%.
Regarding `CC(=O)O[C@H]1C(=O)[C@@]2(C)[C@H]([C@H](OC(=O)c3ccccc3)[C@]3(O)C[C@H](OC(=O)[C@H](O)[C@@H](NC(=O)c4ccccc4)c4ccccc4)C(C)=C1C3(C)C)[C@]1(OC(C)=O)CO[C@@H]1C[C@@H]2O` [Paclitaxel], the “cell proliferation, drug alone compared with drug + TTFields” value in test [1] (Taxol 0.05 μM) is “reduced cell proliferation to a lesser extent”. In addition, in test [2] (Taxol 0.05 μM + TTFields 200 kHz approx. 7 V/cm), the “cells died under the influence of the combined treatment” value is recorded as “about 40%”. For the same compound, the “reduced cell proliferation as compared with the control” value in test [2] (Taxol 0.05 μM alone) stood at 70%. Besides, the “Combination index CI40” value in test [3] (Paclitaxel + TTFields 1.25 V/cm) turned out to be 0.73; in test [3] (Paclitaxel + TTFields 1.75 V/cm), 0.98. Also, the “effect on cell proliferation rate, combination versus drug alone” value in test [3] (Paclitaxel + TTFields 1.25 V/cm and 1.75 V/cm, all concentrations studied) is “significant additional decrease in cell proliferation rate”. Besides, the results for the “induction of cell death” value in test [3] (Paclitaxel alone at concentrations up to 500 nM) and in test [3] (higher concentrations of Paclitaxel in combination with TTFields) were “not observed” and “cell death is induced”, respectively. Also, the “cell proliferation rate (% of control)” value in test [3] (Paclitaxel alone, concentrations above 200 nM, 24 h) came to 55%.
